Patent publication US20230295162A1 (EÖTVÖS LORÁND TUDOMÁNYEGYETEM, priority 2020, published 2023)
Where two headings read alike, the source gives them in different places.

What was measured:
[1] = test system: EBC-1 lung cancer cell line; experiment: High-throughput screening, CellTiter-Glo cell viability assay at 100 nM; format: cell-based, human; details: Homo sapiens, EBC-1, HTS, compounds at 100 nM, 72 h, read-out: cytotoxicity expressed in IC50, EBC-1 (results of High throughput screening)
[2] = test system: H2228 lung cancer cell line; experiment: as above; format: cell-based, human; details: Homo sapiens, NCI-H2228, HTS, compounds at 100 nM, 72 h, read-out: cytotoxicity expressed in IC50, H2228 (results of High throughput screening)
[3] = test system: Panc1 pancreatic cancer cell line; experiment: CellTiter-Glo IC50 (Example 19); format: cell-based; details: Homo sapiens, PANC-1, 72 h
Procedure, shortened: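 Viability relative to untreated wells was calculated from luminescence, and curves fitted (log inhibitor vs response, variable slope) yielded IC50. Plating density was 1000 cells/well, incubation at 37° C, 5% CO2.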

[4] = test system: Detroit 562 cell line; experiment: Additional in vitro IC50 tests (Table 3); format: cell-based; details: Homo sapiens
Procedure, shortened: (§1)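 Cells at 1000/well, viability by CellTiter-Glo luminescence after compound treatment, as % of untreated control. IC50 from variable-slope log(inhibitor) vs response nonlinear regression.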

[5] = test system: EBC-1 cell line; experiment: Additional in vitro IC50 tests (Table 3); format: cell-based; details: Homo sapiens
Procedure, shortened: as §1

[6] = test system: Fadu cell line; experiment: Additional in vitro IC50 tests (Table 3); format: cell-based; details: Homo sapiens
Procedure, shortened: as §1

[7] = test system: H2228 cell line; experiment: Additional in vitro IC50 tests (Table 3); format: cell-based; details: Homo sapiens, NCI-H2228
Procedure, shortened: as §1

[8] = test system: SCC-25 cell line; experiment: Additional in vitro IC50 tests (Table 3); format: cell-based; details: Homo sapiens
Procedure, shortened: as §1

[9] = test system: Capan-1 (pancreas, adenocarcinoma) cells; experiment: Cell viability assay, CellTiter-Glo (Example 21); format: cell-based, human; details: 72 h treatment
Procedure, shortened: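 Capan-1 cells were seeded at 1000 cells/well in flat-bottomed white 96 well plates (BRANDplates®), with density optimized for cell size and growth rate. Following compound treatment, viability was measured with the CellTiter-Glo® luminescent assay (Promega) per the manufacturer's instructions, reading luminescence on a BioTek Synergy 2 Multi-Mode Reader.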

[10] = test system: Detroit 562 (pharynx, carcinoma) cells; experiment: Cell viability assay, CellTiter-Glo (Example 21); format: cell-based, human; details: 72 h treatment
Procedure, shortened: (§2)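 Seeding density per line: Panc-1 750, FaDu 1000, Detroit 562 and MDA-MB-453 1500 cells/well. Viability after treatment read by CellTiter-Glo luminescence; dose-response curves fitted by four-parameter variable-slope non-linear regression.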

[11] = test system: EBC-1 (lung, squamous cell carcinoma) cells; experiment: Cell viability assay, CellTiter-Glo (Example 21); format: cell-based, human; details: 72 h treatment
Procedure, shortened: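 EBC-1 lung squamous cell carcinoma cells were seeded at 1000 cells/well in flat-bottomed white 96 well plates. After compound treatment, viability was measured with the CellTiter-Glo luminescent assay following the manufacturer's instructions, and luminescence was read on a BioTek Synergy 2 Multi-Mode microplate reader.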

[12] = test system: FaDu (pharynx, squamous cell carcinoma) cells; experiment: Cell viability assay, CellTiter-Glo (Example 21); format: cell-based, human; details: 72 h treatment
Procedure, shortened: as §2

[13] = test system: LNCaP (prostate, carcinoma) cells; experiment: Cell viability assay, CellTiter-Glo (Example 21); format: cell-based, human; details: 72 h
Procedure, shortened: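 LNCaP prostate carcinoma cell viability was assessed with the CellTiter-Glo® luminescent assay (Promega), following the manufacturer's instructions. Cells were seeded at 1500 cells/well into flat-bottomed white 96 well plates, treated, and then luminescence was read on a BioTek Synergy 2 Multi-Mode Reader. Dose-response curves were fitted in GraphPad Prism 8.4.2 by four-parameter variable-slope non-linear regression.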

[14] = test system: MDA-MB-453 (breast, carcinoma) cells; experiment: Cell viability assay, CellTiter-Glo (Example 21); format: cell-based, human; details: 72 h treatment
Procedure, shortened: as §2

[15] = test system: PC-3 (prostate, adenocarcinoma) cells; experiment: Cell viability assay, CellTiter-Glo (Example 21); format: cell-based, human; details: 72 h treatment
Procedure, shortened: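 PC-3 prostate adenocarcinoma cells were seeded at 1000 cells/well in flat-bottomed white 96 well plates and treated with compounds. Viability was then determined with the CellTiter-Glo® luminescent assay (Promega) following the manufacturer's instructions, with luminescence read on a BioTek Synergy 2 Multi-Mode Reader.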

[16] = test system: Panc-1 (pancreas, carcinoma) cells; experiment: Cell viability assay, CellTiter-Glo (Example 21); format: cell-based, human; details: 72 h treatment
Procedure, shortened: as §2

[17] = test system: Panc-1 human cell line; experiment: Cytotoxicity on Panc-1, xCELLigence SP, IC50 after 24 h, 48 h, 72 h and 96 h (Example 22)

## [N-]=[N+]=Nc1cccc(CN2CCC3=C(C2)C(=O)N(Cc2ccc(C(F)(F)F)cc2)C2=NCCN23)c1 [I/111, 7-(3-Azidobenzyl)-4-(4-(trifluoromethyl)benzyl)-2,4,6,7,8,9-hexahydroimidazo[1,2-a]pyrido[3,4-e]pyrimidin-5(1H)-one]
[1]
  IC50: < 0.1 µM
[2]
  IC50: < 0.1 µM
[3]
  IC50: 0.009 µM
[4]
  IC50: 0.003 µM
[5]
  IC50: 0.008 µM
[6]
  IC50: 0.011 µM
[7]
  IC50: 0.013 µM
[8]
  IC50: 0.015 µM
[9]; 3.7 nM
  Capan-1 (pancreas, adenocarcinoma) cell viability (% of control): 102.5 ± 4.0 % of control
[9]; 11.1 nM
  Capan-1 (pancreas, adenocarcinoma) cell viability (% of control): 95.1 ± 8.2 % of control
[9]; 100 nM
  Capan-1 (pancreas, adenocarcinoma) cell viability (% of control): 31.7 ± 1.7 % of control
[9]; 300 nM
  Capan-1 (pancreas, adenocarcinoma) cell viability (% of control): 30.8 ± 3.3 % of control
[10]; 3.7 nM
  Detroit 562 (pharynx, carcinoma) cell viability (% of control): 48.0 ± 21.7 % of control
[10]; 11.1 nM
  Detroit 562 (pharynx, carcinoma) cell viability (% of control): 32.8 ± 3.7 % of control
[10]; 100 nM
  Detroit 562 (pharynx, carcinoma) cell viability (% of control): 26.8 ± 2.8 % of control
[10]; 300 nM
  Detroit 562 (pharynx, carcinoma) cell viability (% of control): 28.8 ± 3.8 % of control
[11]; 3.7 nM
  EBC-1 (lung, squamous cell carcinoma) cell viability (% of control): 94.1 ± 3.0 % of control
[11]; 11.1 nM
  EBC-1 (lung, squamous cell carcinoma) cell viability (% of control): 54.0 ± 6.5 % of control
[11]; 100 nM
  EBC-1 (lung, squamous cell carcinoma) cell viability (% of control): 20.6 ± 0.6 % of control
[11]; 300 nM
  EBC-1 (lung, squamous cell carcinoma) cell viability (% of control): 20.0 ± 0.0 % of control
[12]; 3.7 nM
  FaDu (pharynx, squamous cell carcinoma) cell viability (% of control): 97.7 ± 3.9 % of control
[12]; 11.1 nM
  FaDu (pharynx, squamous cell carcinoma) cell viability (% of control): 66.8 ± 12.0 % of control
[12]; 100 nM
  FaDu (pharynx, squamous cell carcinoma) cell viability (% of control): 21.7 ± 5.4 % of control
[12]; 300 nM
  FaDu (pharynx, squamous cell carcinoma) cell viability (% of control): 22.1 ± 4.8 % of control
[13]; 3.7 nM
  LNCaP cell viability: 97.1 ± 2.6 % of control
[13]; 11.1 nM
  LNCaP cell viability: 32.4 ± 2.3 % of control
[13]; 100 nM
  LNCaP cell viability: 11.8 ± 0.7 % of control
[13]; 300 nM
  LNCaP cell viability: 11.7 ± 0.7 % of control
[14]; 3.7 nM
  MDA-MB-453 (breast, carcinoma) cell viability (% of control): 107.2 ± 5.9 % of control
[14]; 11.1 nM
  MDA-MB-453 (breast, carcinoma) cell viability (% of control): 45.7 ± 5.0 % of control
[14]; 100 nM
  MDA-MB-453 (breast, carcinoma) cell viability (% of control): 30.3 ± 1.0 % of control
[14]; 300 nM
  MDA-MB-453 (breast, carcinoma) cell viability (% of control): 28.8 ± 0.4 % of control
[15]; 3.7 nM
  PC-3 (prostate, adenocarcinoma) cell viability (% of control): 106.8 ± 2.4 % of control
[15]; 11.1 nM
  PC-3 (prostate, adenocarcinoma) cell viability (% of control): 75.5 ± 5.9 % of control
[15]; 100 nM
  PC-3 (prostate, adenocarcinoma) cell viability (% of control): 32.0 ± 3.2 % of control
[15]; 300 nM
  PC-3 (prostate, adenocarcinoma) cell viability (% of control): 31.3 ± 3.0 % of control
[16]; 3.7 nM
  Panc-1 (pancreas, carcinoma) cell viability (% of control): 106.1 ± 7.3 % of control
[16]; 11.1 nM
  Panc-1 (pancreas, carcinoma) cell viability (% of control): 99.6 ± 1.4 % of control
[16]; 100 nM
  Panc-1 (pancreas, carcinoma) cell viability (% of control): 50.1 ± 2.0 % of control
[16]; 300 nM
  Panc-1 (pancreas, carcinoma) cell viability (% of control): 49.7 ± 1.2 % of control
[17]; PANC-1, 72 h, read-out: IC50 (72 h) [nM]
  IC50: 20.1 ± 1.68 nM
[17]; PANC-1, 96 h, read-out: IC50 (96 h) [nM]
  IC50: 8.58 ± 0.256 nM
